Source: patent US20070015702A1, “Method of treatment and/or prevention of neuropathic pain” (Asahi Kasei Pharma Corporation, priority 2005, published 2007)
Like-named read-outs stand apart in the source and are kept apart here.

Experiments:
[1] = test system: chronic constriction injury model (CCI model); test: Continuous administration of elcatonin in CCI model, hyperalgesia, withdrawal latency (BASILE Plantar Test); assay type: in vivo, rat
Description: An apparatus measures a time (withdrawal latency) until escaping after giving nociceptive heat stimulus to a posterior limb in a rat under unrestrained condition. Right hindlimb was measured as a measurement leg. Initially, a rat was placed in an acryl box on a glass plate, and domesticated for about 5 minutes. Amoving type I.R (infrared) generator (I.R. vessel) was placed under the glass plate, and “sight” cross (I.R. irradiation position) inscribed on an upper panel of the I.R. vessel was adjusted to inside of six pads on the right hind paw. In this procedure, contact of the glass plate and hind paw was confirmed. Subsequently, a start key was pushed and heat stimulation was imparted, and withdrawal latency for escaping behavior of a rat of withdrawing limb was measured. When escaping behavior is caused, a switch is automatically turned off, and reaction time is counted. […] Measurement was carried out under clean condition so that there was no feces and no urine on the glass plate.

[2] = test system: chronic constriction injury model (CCI model)
Description: Under anesthesia with ether, a rat was placed in prone position, and while touching the right femur, the skin was dissected right above it. Biceps femoris was peeled at the center of the femur, and exposed by about 5 mm trying not to injure the sciatic nerve. Using 4-0 blade silk, the sciatic nerve was liegted loosely 4 times in turn from the peripheral side. Thereafter, the fascia and the skin were sutured.
Using withdrawal threshold and body weight on the 8th day after the constriction operation as indices, the rats were divided into a CCI-vehicle group (12 rats), and CCI-ECT 0.75 mU/kg/week, CCI-ECT 7.5 mU/kg/week and CCI-ECT 75 mU/kg/week groups (each 12 rats), by a randomization method (SAS system, version 8.2). […] Body weight used for administration was estimated body weight after initiation of administration and calculated by multiplying body weight at start of administration by body weight increase coefficient (1.1) obtained in the preliminary experiment. […]
First, the position of a pressure needle was controlled to confirm that an arm was horizontal to the thickness of a rat leg. […] When the rat withdrew the limb, the foot pedal was released, and a numerical value 0 to 25) of the moving matter on a scale was read. The read numerical value was multiplied by 20, to convert into pressed weight (withdrawal threshold). […]

[3] = test system: chronic constriction injury model (CCI model); test: Intermittent subcutaneous administration of elcatonin in CCI model, nociceptive threshold; assay type: in vivo, rat
Description: On the 12th day or later after the constriction operation, ECT or vehicle was administered subcutaneously at 0.05 ml/B.W.100 g.

[4] = Shinyaku to Rinsho, 1990, vol. 39, no. 2; cited from earlier work
[5] = rat, in vivo, sc
Description: Measurement of serum calcium value was conducted using calcium C-test wako (Wako).

With “1-butylic acid-7-(L-2-aminobutylic acid)-26-L-aspartic acid-27-L-valine-29-L-alaninecalcitonin [elcatonin]” the “extent of analgesic action across dose range” value ([1]; 0.00075-75 U/kg/week continuous) was “approximately constant”, the “analgesic action on continued administration” value ([1]; administration continued for 2 weeks) was “continuance of an analgesic action” and the “analgesic action (withdrawal latency)” value ([1]; next day after initiation of continuous administration (12th day after operation), 0.00075, 0.0075, 0.075, 7.5, 75 U/kg/week, vs vehicle group) was “significant analgesic action was confirmed in all elcatonin administration groups”. For the same substance, the “time after initiation of administration at which significant analgesic action was recognized” value ([2]; continuous s.c. administration, CCI rats) was 16 h, the “analgesic action (nociceptive threshold)” value ([2]; continuous s.c. mini osmotic pump, 0.75, 7.5, 75 mU/kg/week, from 11th day after constriction operation, vs vehicle group, Williams test) was “significant analgesic action” and the “analgesic action (nociceptive threshold)” value ([3]; 15 U/kg s.c. 3 times a week) was “a significant action was not observed”. For the same substance, the “day after initiation of administration from which the threshold initiated to recover” value ([3]; 15 U/kg s.c. 5 times a week) was 4 days, the “effect on nociceptive threshold until 3-rd day after initiation of administration” value ([3]; 15 U/kg s.c. intermittent, 3 or 5 times a week) was “an effect was not observed” and the “manifestation of analgesic effect” value ([3]; intermittent administration, dose further increased) was “delay of manifestation of an analgesic effect was not improved”.

For calcitonin, the “maximum effective dose of neuropathic pain treatment by continuous administration” value ([1]; Example 2, rat) is given as 75 U/kg/week, the “maximum effective dose of neuropathic pain treatment by continuous administration, in terms of second” value ([1]; Example 2, rat) is given as 0.124 mU/kg/second and the “ratio of calcitonin dose altering serum calcium value, rat versus human” value [4] is given as 25 fold. The “dose per unit time (second) at which serum calcium value changed (serum calcium alteration threshold)” value [5] was 15 mU/kg/second.
